The test system of data set [1] is Rag1-40 target sequence in the 3′ UTR of firefly luciferase, COS-1 cells.
Another data set relates to T24 cells. Briefly: Cellular proliferation assay (CCK8) in T24 cells, alone and combined with Mitomycin C or valrubicin. The data set is classed as cell-based, human. Particulars: T24 cells, 10 nM, 72 hours, CCK8. An excerpt:
(§1) After the transfection, the number of viable cells was detected with a CCK8 kit, and plotted as the percentage of the blank control treatment group. […] A transfection sample without oligonucleotide served as a blank control. Non-specific duplex (dsCon) transfected sample served as a negative control. Data are presented as mean±SD of at least two independent experiments. The values below the dashed line indicate stronger growth inhibitory activity compared to duplex Rag1-40 without chemical modification.
T24 cells were transfected with RAG1-40-31 at concentrations of 0.1, 0.5, 1, 5, 10, 25 and 50 nM for 24 hours, and then Mitomycin C was added at concentrations of 1, 10, 100, 1000 and 10000 nM. The combined treatment was carried out with concentrations in pairs. After treatment, the cellular proliferation was detected by CCK8 kit. FIGS. 16A-16B show the relative proliferation proportion of T24 cells after the combined treatment with chemically modified saRNA RAG1-40-31 and valrubicin. […] Control and DMSO are the blank transfection control and the solvent for dilution control, respectively.
T24 cells were transfected with RAG1-40-31 at concentrations of 0.1, 0.5, 1, 5, 10, 25 and 50 nM for 24 hours, and then valrubicin at concentrations of 1, 10, 100, 1000 and 10000 nM was added. The combined treatment was carried out with concentrations in pairs. After treatment, the cellular proliferation was detected by CCK8 kit.
(§2) Human bladder cancer cells Ku-7-LG (ATCC), J82 (ATCC) and T24 (ATCC) were cultured in McCoy medium (Gibco) comprising 10% calf serum (Sigma-Aldrich) and 1% penicillin/Streptomycin (Gibco). Cells were cultured at 37° C. under 5% CO2. Ku-7-LG, J82 and T24 cells were plated into 12-well plates at 10×10^4 cells per well, transfected with the small RNA at a concentration of 10 nM (unless otherwise specified) for three days, using RNAiMax (Invitrogen, Carlsbad, CA) according to the manufacturer's instructions. Two replicate wells were set for each treatment.
(§3) Cells were plated in a 96-well plate at 2˜4×10^3 cells/well, cultured overnight, and transfected with the oligonucleotide duplexes. Three days after transfection, CCK8 (Dojindo) was used to detect cellular proliferation following manufacturer's instructions. The experimental steps are briefly described as follows: 10 μL of CCK8 solution was added to each well, incubated at 37° C. for 1 hour, and then the absorbance at 450 nm was measured using a microplate reader.
(§4) It is known that p21 induction by saRNA is that a variety of tumor suppressor factors such as p21 protein suppress the proliferation of cancer cells. To evaluate the effect of chemically modified saRNAs on the function of cancer cells, cells (Ku-7-LG and T24) were transfected with 10 nM unmodified and modified saRNAs for 72 hours, and the cellular proliferation was determined by CCK8. […] Furthermore, there was a correlation between RNA activating activity (FIGS. 7A-7B) and suppression of cellular proliferation activity (FIGS. 8A-8B). Strong p21 activators are usually also strong cytostatics.

The test system of data set [2] is p21 gene. The experiment in a line: p21 mRNA expression by RT-qPCR in T24 cells. In kind it is cell-based, human. Particulars: 10 nM, 72 hours, compared with unmodified Rag1-40 unless worded otherwise. The procedure: (§5) Ku-7-LG and T24 cells were transfected with the indicated saRNA at a final concentration of 10 nM for 3 days. After transfection, the RNA was extracted with the Qiagen RNeasy kit. After reverse transcription, the ABI 7500 fast real-time PCR system was used for qPCR amplification. The GAPDH gene was amplified as an internal reference. […] Dashed line indicates duplex Rag1-40 with no chemical modification in comparison, and the values above the line indicate stronger activity. The control was blank transfection without oligonucleotide. dsCon2 is transfected with a double-stranded scramble RNA. The value of the ordinate represents the mean±SD of 2 repeated treatments.
(§6) The control and dsCon2 were blank transfection and scramble dsRNA transfection, respectively. The values in the ordinate represent the mean±SD of 2 repeated treatments.
as §2
(§7) After transfection, the medium was discarded and to each well 500 μl cell lysate was added and incubated at room temperature for 5 minutes. RNA was extracted with the Qiagen RNeasy kit, and after reverse transcription, qPCR analysis was performed on the ABI 7500 Fast Real-time PCR system (Applied Biosystems). Each sample was amplified in 3 replicate wells.
(§8) The PCR reaction conditions are: 95° C. for 30 seconds, 95° C. for 5 seconds, 60° C. for 30 seconds, and 40 cycles of amplification. The GAPDH gene was amplified as an internal reference at the same time. p21 was amplified with the p21F1/R1 primer pair, and the specific sequences of the amplification primers are shown in Table 1.
(§9) In order to calculate the expression value (Erel) of p21 (target gene) of a saRNA transfection sample relative to the control treatment, Formula 1 is used to input the Ct values of the target gene and the internal reference gene for calculation.
(§10) wherein, CtTm is the Ct value of the target gene from the control treatment sample; CtTs is the Ct value of the target gene from the saRNA treated sample; CtRm is the Ct value of the internal reference gene from the control treatment sample; and CtRs is the Ct value of the internal reference gene from the saRNA treated sample.
(§11) The main purpose of introducing chemical modifications to regulatory oligonucleotides of a gene is to improve their pharmaceutical properties, including enhancing in vivo stability and mitigating off-target effects (e.g., sequence-dependent targeting of unrelated genes, sequence-dependent or independent immune stimulation), while maintaining their gene regulatory capacity (gene knockdown or activation). To assess the effect of chemical modification on the RNAa activity of saRNA on the p21 gene, 10 nM unmodified (Rag1-40) and modified (Rag1-40-1 to Rag1-40-34) duplexes were transfected into Ku-7-LG and T24 cells, respectively. After 72 hours, the mRNA expression level of p21 was assessed by RT-qPCR. All duplexes induced p21 mRNA expression in all […] at least double that of the control.
(§12) In order to further evaluate the expression level of p21 mRNA after the different durations of treatment by the chemically modified saRNA duplexes, two saRNAs (RAG1-40-31 and RAG1-40-53) were randomly selected from the above chemically modified saRNA duplexes for detection. RAG1-40-31 and RAG1-40-53 were transfected into Ku-7-LG and T24 cells at a final concentration of 10 nM, for 1, 2, 3, 4, 7 and 9 days, respectively. Each treatment was set up in duplicate. […]
Background: Quantitative PCR measures a nucleic acid by following its amplification.

The test system of another data set is Ku-7-LG cells. Briefly: Cellular proliferation assay (CCK8) in Ku-7-LG cells. The conditions noted are these: 10 nM, 72 hours. In kind it is cell-based, human. As to the method: Ku-7-LG cells were transfected with the indicated saRNA at 10 nM for 3 days. […] The closer the luciferase value is to the control group, the lower the probability of off-target effects of saRNA is. Control and dsCon2 were blank transfection and double-stranded scramble RNA transfection, respectively. The value of the ordinate represents the mean±SD of two repeated treatments.
as §1, §2, §3, §4

The target in the next data set is T1, RNase A (Bos taurus, UniProt P61823).
T1 sequence (P61823 27-150): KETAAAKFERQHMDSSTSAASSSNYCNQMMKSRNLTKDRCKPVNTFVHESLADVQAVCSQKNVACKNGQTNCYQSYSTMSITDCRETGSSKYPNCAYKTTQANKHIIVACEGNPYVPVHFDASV

For data set [3], the system named is p21 gene. The experiment in a line: p21 mRNA expression by RT-qPCR in Ku-7-LG cells. The data set is classed as cell-based, human. The conditions noted are these: 10 nM, 72 hours, compared with unmodified Rag1-40 unless worded otherwise. The procedure:
as §5, §6, §2, §7, §8, §9, §10, §11, §12

Data set [4] has as its system Rag1-40 target sequence in the 3′ UTR of firefly luciferase, COS-1 cells. The experiment in a line: Analysis of off-target effects (pOff-Target dual luciferase reporter in COS-1 cells). The conditions noted are these: lysed 48 hours after transfection, luciferase activity. On the technique in general: Reporter assays use an easily measured gene product as a stand-in for the process of interest.

“Also recorded” adds a separate entry of the source. Read-outs that look alike come from different tables or passages of the source. Oligonucleotides are written 5' to 3', each unit as a sugar letter and its base; * is a phosphorothioate linkage, no mark a phosphodiester; rarer units and linkages stand in square brackets, end groups in braces. Plain capitals give the bases only. d = 2'-deoxy (DNA); m = 2'-O-methyl; r = 2'-OH (RNA); f = 2'-fluoro

For the substance “Rag1-40-11: saRNA duplex: sense fCfCAACUCAUUCUCCAAGfUfC (SEQ ID NO 14); antisense fUmAfCfUfUmGmGmAmGmAmAfUmGmAmGfUfUmGmGfCmA (SEQ ID NO 8) (sense fCfCrArArCrUrCrArUrUrCrUrCrCrArArGfUfC)”, the “off-target effect compared to unmodified Rag1-40, in words” value in data set [1] was “completely inhibited”. Further, the “suppression of cellular proliferation, in words” value (“suppression” for short) in the data set on T24 cells and with Ku-7-LG cells was “negatively affects proliferation suppression activity” throughout. The “RNA activation activity (p21 mRNA), in words” value (from here on “RNA activation activity”) in the data set with p21 gene [2] is “reduced activity”. Besides, the “degradation of duplex at 96 hours” value with RNase A is reported as “little or no signs of degradation”.

Consider “Rag1-40-16: saRNA duplex: sense fCfCAACUCAUUCUCCAAGfUfC (SEQ ID NO 14); antisense fUactfUGGAGAAfUGAGfUfUGG*fC*A (SEQ ID NO 13) (sense CCAACUCAUUCUCCAAGUC; antisense UACTUGGAGAAUGAGUUGGCA; 2'-F, DNA residues, phosphorothioate modifications; modified_base (1)..(19) (1,2,18,19)=2′-fluoro; modified_base (1)..(17) (1,2,9,13,14,17)=2′-fluoro; (1)..(21) (1,5,6,7,8,9,10,11,12,13,14,15,1,61,7,18,19,20, 21)=RNA; (2)..(4) (2,3,4)=DNA; modified_base (16)..(18) (16,17,18)=phosphorothioate (PS) backbone modification)”, for which, in data set [1], the “off-target effect compared to unmodified Rag1-40, in words” value is on record as “increased off-target effects”. For the same substance, the “suppression” value with T24 cells and with Ku-7-LG cells was “weakens the activity of the saRNA duplex to suppress cellular proliferation” throughout. The “degradation of duplex at 96 hours” value with RNase A is reported as “little or no signs of degradation”.

As to “Rag1-40-32: saRNA duplex: sense fCfCAACUCAUUCUCCAAG*U*C (SEQ ID NO 16); antisense fUactfUGGAGAAfUGAGfUfUGG*fC*A (SEQ ID NO 13) (sense fCfCrArArCrUrCrArUrUrCrUrCrCrArArG*rU*rC; antisense fUdAdCdTfUrGrGrArGrArAfUrGrArGfUfUrGrG*fC*rA)”, the “off-target effect compared to unmodified Rag1-40, in words” value in data set [1] is recorded as “increased off-target effects”. Besides, the “suppression” value with T24 cells is “weakens the activity of the saRNA duplex to suppress cellular proliferation”; with Ku-7-LG cells, “weak cellular proliferation inhibitory activity; also recorded: weakens the activity of the saRNA duplex to suppress cellular proliferation”. For the same substance, the results for the “RNA activation activity” value with p21 gene [2] and in the data set with p21 gene [3] were “reduced activity; also recorded: attenuated activity” and “attenuated activity; also recorded: weak RNA activating activity”, respectively. Moreover, the “degradation of duplex at 96 hours” value in the data set with RNase A is recorded as “little or no signs of degradation”.

For the substance “Rag1-40-33: saRNA duplex: sense CCAACUCAUUCUCCAAGUC (SEQ ID NO 17); antisense UactUGGAGAAUGAGUUGGCA (SEQ ID NO 18) (antisense rUdAdCdTrUrGrGrArGrArArUrGrArGrUrUrGrGrCrA; sense: unmodified RNA)”, the “RNA activation activity” value is listed as “reduced activity; also recorded: attenuated activity” in the data set with p21 gene [2] and “attenuated activity; also recorded: weak RNA activating activity” in the data set on p21 gene [3]. In the data set with Ku-7-LG cells, the “suppression” value is listed as “weak cellular proliferation inhibitory activity”. In addition, the “off-target effect compared to unmodified Rag1-40, in words” value in data set [4] is “mitigated or similar off-target effects”.

“Rag1-40-34: saRNA duplex: sense CCAACUCAUUCUCCAAGUC (SEQ ID NO 17); antisense UacttggAGAAUGAGUUGGCA (SEQ ID NO 19) (antisense rUdAdCdTdTdGdGrArGrArArUrGrArGrUrUrGrGrCrA; sense: RNA, phosphodiester; further chemistry not fully specified)”: the “RNA activation activity” value was “reduced activity; also recorded: attenuated activity” with p21 gene [2] and “attenuated activity; also recorded: weak RNA activating activity” in the data set with p21 gene [3]. The “suppression” value in the data set with Ku-7-LG cells is reported as “weak cellular proliferation inhibitory activity”. Moreover, the “off-target effect compared to unmodified Rag1-40, in words” value in data set [4] is “mitigated or similar off-target effects”.

For the origin of these results see patent publication US20240301409A1, “Chemically Modified Small Activating RNA” (RACTIGEN THERAPEUTICS, priority 2021, published 2024).
